Patent US20110312898A1, “PROPHYLACTIC / THERAPEUTIC AGENT FOR CANCER” (Takeda Pharmaceutical Company Limited, priority 2008, published 2011)
Square brackets hold non-standard residues; d marks the D form. Arg(Me) = CNC(=N)NCCC[C@H](N)C(=O)O; Hyp = O=C(O)[C@@H]1C[C@@H](O)CN1; azaGly = NNC(=O)O

What was measured:
Dunning R3327-G cells = assay: Androgen-independent antitumor effects, Dunning R3327-G cells implanted in orchiectomized Copenhagen rats; type: in vivo, rat; conditions: 50 nmol/kg/W, subcutaneous ALZET pump; day 52 following the start of dosing; compared with solvent group
From the text: Dunning R3327-G cells, an androgen-sensitive rat prostate cancer cell line, were implanted into orchiectomized Copenhagen rats, and the androgen-independent antitumor effects by Compound No. 550 and Compound No. 723 were investigated.
R3327-G cells (7×10^6) were implanted subcutaneously in 10-week-old orchiectomized male Copenhagen rats. Fifty days after implantation, the rats were divided into groups based on the tumor volume, and were then assigned to a Compound 550—50 nmol/kg/W group, a Compound No. 723—50 nmol/kg/W group, and a solution group (each group consisting of 10 animals). The dose was calculated based on the mean weight of the animals on the day that dosing was begun. Administration was carried out by subcutaneous implantation in the dorsal region using an ALZET pump. The tumor diameter was measured on days 50, 65, 71, 78, 91 and 102 following cell implantation (days 0, 15, 21, 28, 41 and 52 following the start of dosing). The tumor volume (mm^3) was calculated as follows: major axis×minor axis^2÷2. Owing to deaths and the euthanization of animals in the course of the tests, on day 52 following the start of dosing (day 102 after transplantation), only six animals remained in the solution group and only seven animals remained in the Compound No. 723 group.

[1] = system: human prostate cancer cell line VCaP; assay: Growth-inhibitory activity on VCaP spheroids (CellTiter-Glo); type: cell-based; conditions: 10% DCC-FCS
Description: Evaluation of the growth-inhibitory activity of the metastin peptide derivative using human prostate cancer cell line VCaP
Regarding Compound No. 723, the inhibitory activity on androgen-independent growth of human prostate cancer cell line VCaP (CRL-2876, American Type Culture Collection) was evaluated. […] in the state of three-dimensional culture (spheroid) was used in the evaluation. Specifically, VCaP cells were suspended in a DMEM medium (Ref. No. 11995, Invitrogen) containing 10% FCS (Cat. No. 171012, Cell Culture Bioscience) to set the concentration to 1.5×10^6 cells/mL. The obtained suspension was spotted on a cover of a tissue culture dish (Ref. No. 353003, FALCON) (20 μL for each) to perform Hanging drop culture (3×10^4 cells/drop). In order to prevent drying, 10 mL of DPBS (Ref. No. 14190, Invitrogen) was added to the culture dish. […]
(§1) Cell growth was quantified 9 days after the start of the treatment with Compound No. 723 by measuring the chemical luminescence evoked by cellular ATP using CellTiter-Glo Luminescent Cell Viability Assay (Promega). Wallac 1420 ARVO MX/Light (Parkin Elmer) was used for the measurement of the luminescence intensity.

DU145 = assay: Antitumor activity in DU145 tumor-bearing male rat model; type: in vivo; conditions: microcapsule powder s.c. 10, 30 and 60 days after transplantation; No. 550 10 mg/kg, No. 723 1 or 10 mg/kg; 74 days after transplantation; vs surgically castrated group
Description: Evaluation of antitumor activity of the metastin peptide derivative in DU145 tumor-bearing male rat model
Antitumor activity of Compound No. 550 and Compound No. 723 against a DU145 tumor-bearing male rat model was evaluated. Specifically, 1×10^6 cells/100 μL suspension of DU145 (androgen-independent cell line, GPR54 highly expressing cell line, ATCC) was mixed with 100 μL of basement membrane matrix: Matrigel (trade name, BD Biosciences), and the obtained mixture was transplanted under the abdominal skin of 7-week-old F344/NJc1-rnu/rnu male rats (CLEA Japan, Inc.) which had been etherized. 10 days after the transplantation, the rats in which the volume of subcutaneous tumor reached 200 mm^3 were divided into 4 groups (Groups A-D, 10 rats for each group). […]
Regarding Group D, the rats were surgically castrated and used as the negative control group. […] 74 days after the transplantation of DU145 cells, the tumor volume (longer diameter×shorter diameter×shorter diameter/2) was measured. […]

[2] = system: human prostate cancer cell line 22Rv1; assay: Growth-inhibitory activity on 22Rv1 spheroids (CellTiter-Glo); type: cell-based; conditions: 10% DCC-FCS
Description: Evaluation of the growth-inhibitory activity of the metastin peptide derivative using human prostate cancer cell line 22Rv1
Regarding Compound No. 723, the growth-inhibitory activity on androgen-independent human prostate cancer cell line 22Rv1 (CRL-2505, American Type Culture Collection) was evaluated. […] in the state of three-dimensional culture (spheroid) was used in the evaluation. Specifically, 22Rv1 cells were suspended in a RPMI1640 medium (Ref. No. 22400, Invitrogen) containing 10% FCS (Cat. No. 171012, Cell Culture Bioscience) to set the concentration to 1.5×10^6 cells/mL. The obtained suspension was spotted on a cover of a tissue culture dish (Ref. No. 353003, FALCON) (20 μL for each) to perform Hanging drop culture ([…]). In order to prevent drying, 10 mL of DPBS (Ref. No. 14190, Invitrogen) was added to the culture dish. […]
as §1

Substance | antitumor effects (tumor volume) (Dunning R3327-G cells) | Luminescence intensity ([1]; 1 μM supplied every 12 hours for 8 days, 9 days after start of treatment, cellular ATP, n = 18, Control 564458 ± 27628) | androgen-independent growth of human prostate cancer cells (VCaP) ([1]; 1 μM, vs control) | antitumor effects (tumor volume) (DU145) | Luminescence intensity ([2]; 1 μM supplied every 12 hours for 8 days, 9 days after start of treatment, cellular ATP, n = 18, Control 483469 ± 55917) | growth of androgen-independent human prostate cancer cells (22Rv1) in the absence of androgen ([2]; 1 μM, vs control)
Ac-D-Tyr-Hyp-Asn-Thr-Phe-AzaGly-Leu-Arg(Me)-Trp-NH2 (Ac-[dY][Hyp]NTF[azaGly]L[Arg(Me)]W-NH2) [Compound No. 723] | significant antitumor effects | 507191 ± 73146 | significantly reduced the androgen-independent growth | antitumor effects more than the surgical castration | 401291 ± 40565 | significantly reduced the growth
Ac-[dY][dW]NTF[azaGly]L[Arg(Me)]W-NH2 [Compound No. 550] | significant antitumor effects | – | – | antitumor effects more than the surgical castration | – | –
